Results on 13 molecules are retold here after patent US20090105301A1, “9A-SUBSTITUTED AZALIDES FOR THE TREATMENT OF MALARIA” (priority 2006, published 2009).

In brackets after ≈: the same amount, converted by molar mass.

Usually IC50 stands for the concentration at which inhibition is half-maximal.

Type in all cases: cell-based, Plasmodium falciparum
For test [1], the system named is P. falciparum D6 (CDC/Sierra Leone I, D-6). Kind of test: In vitro screening protocol I, [3H]-hypoxanthine incorporation, D6. To be noted: In vitro screening protocol I, P. falciparum D6; for IC50: Plasmodium falciparum, read-out: IC50 D6. From the text:
(§1) Agents Chemother. 27 (4) (1985) 525-530). The system was limited to the assessment of the intrinsic activity against the erythrocytic asexual life cycle (blood schizontocides). Two Plasmodium falciparum clones from CDC/Indochina III (W-2) and CDC/Sierra Leone I (D-6) (Oduola A M, Weatherly N F, Bowdre J H, Desjardins R E. Plasmodium falciparum: cloning by single-erythrocyte micromanipulation and heterogeneity in vitro. Exp Parasitol. 66 (1) (1988) 86-95) were used for all assays. TM91C235, a multiple drug resistant isolate from Thailand (Antimicrob. Agents Chemother. 46 (8) (2002) 2627 and Antimicrob. Agents Chemother. 43 (3) (1999) 598-602), was used for the prescreening assay. W-2 is resistant to chloroquine, quinine, and pyrimethamine and susceptible to mefloquine. D-6 tends to be more resistant to mefloquine and susceptible to chloroquine, quinine, and pyrimethamine. All documents cited in this paragraph are incorporated by reference in their entirety.
(§2) All parasites were maintained in continuous long term cultures in RPMI-1640 medium supplemented with 6% washed human A positive (A+)(erythrocytes, 25 mM Hepes, […], and 10% heat inactivated A+ human plasma or ALBUMAX® (lipid-rich bovine serum albumin; Invitrogen, Carlsbad, Calif.). All cultures and assays were conducted at 37° C. under an atmosphere of 5% CO2 and 5% O2, with a balance of N2.
(§3) The prescreening assay uses TM91C235 diluted at a 0.4% parasitemia in a 1% hematocrit in folic acid free and p-aminobenzoic acid free media RPMI-1640 and ALBUMAX®. […] The compound is further diluted in folate free (FF) culture medium with ALBUMAX® for the first initial starting concentration. The rest of the stock drug solution was kept at −70° C. The isolate was preexposed, in duplicate, at three concentrations (25,000 ng/ml, 2,500 ng/ml, and […]) of the test compound for 48 hr in a 96-well microtiter plate (MTP) using the BIOMEK® 2000 automated laboratory workstation. Each MTP contains chloroquine as control to assess the relative activity of the compound and to monitor the response of TM91C235.
(§4) After the preincubation, [^3H]-hypoxanthine was added to each well of the MTP. (The assay relies on the incorporation of radiolabeled hypoxanthine by the parasites, which indicates reproduction, and inhibition of isotope incorporation was attributed to activity of known or candidate antimalarial drugs). After 72 hours of total incubation time, the MTP were frozen to lyse the erythrocytes and parasites. The parasite DNA was recovered by harvesting the lysate onto glass-fiber filter plates using a Packard FilterMate™ Cell Harvester. The radioactivity was counted on a Packard TopCount™ microplate scintillation counter.
(§5) The serial dilution assay was conducted using the same assay conditions and stock solution of the compound used for the preliminary screen, described above. Both the D-6 and the W-2 clones were used. The compounds were diluted two-fold over 11 different concentration ranges with a starting concentration that was based on the preliminary screen. For each drug, the concentration response profile was determined and 50% inhibitory concentrations (IC50) were determined by using a non-linear, logistic dose response analysis program. […] For each assay, the IC50 for each clone was determined against the known antimalarials chloroquine and mefloquine. These control values established the compound's relative parasite susceptibility profile compared to known antimalarials. […]

In another test the test system is P. falciparum TM91C235. Kind of test: In vitro screening protocol I, [3H]-hypoxanthine incorporation, TM91C235. To be noted: In vitro screening protocol I, P. falciparum TM91C235; for IC50: Plasmodium falciparum, read-out: IC50 TM91C235.
Description: as §1, §2, §3, §4, §5

The subject of test [2] is P. falciparum W2 (CDC/Indochina III, W-2). The experiment in a line: In vitro screening protocol I, [3H]-hypoxanthine incorporation, W2. As to conditions: In vitro screening protocol I, P. falciparum W2; for IC50: Plasmodium falciparum, read-out: IC50 W2.
Description: as §1, §2, §3, §4, §5

Turning to `CC[C@H]1OC(=O)[C@H](C)[C@@H](O[C@H]2C[C@@](C)(OC)[C@@H](O)[C@H](C)O2)[C@H](C)[C@@H](O[C@@H]2O[C@H](C)C[C@H](N(C)C)[C@H]2O)[C@](C)(O)C[C@@H](C)CN(CCCNCc2ccc3ccccc3n2)[C@H](C)[C@@H](O)[C@]1(C)O` [Example 1, 9a-{3-[(Quinolin-2-yl-methyl)amino]propyl}-9-deoxo-9-dihydro-9a-aza-9a-homoerythromycin A], the figures for the IC50 (in test [1]; in the test on P. falciparum TM91C235; in test [2]) were 0.1 to 0.2 µg/mL (≈ 0.107 to 0.214 µM), under 0.1 µg/mL and under 0.1 µg/mL, respectively.
On to `CC[C@H]1OC(=O)[C@H](C)[C@@H](O)[C@H](C)[C@@H](O[C@@H]2O[C@H](C)C[C@H](N(C)C)[C@H]2O)[C@](C)(O)C[C@@H](C)CN(CCCNCc2ccc3ccccc3n2)[C@H](C)[C@@H](O)[C@]1(C)O` [Example 2, 9a-{3-[(Quinolin-2-yl-methyl)amino]propyl}-3-O-decladinosyl-9-deoxo-9-dihydro-9a-aza-9a-homoerythromycin A], for which the IC50 in test [1] was in the range of 0.2 to 1 µg/mL (≈ 0.258 to 1.29 µM); with P. falciparum TM91C235, 0.1 to 0.2 µg/mL (≈ 0.129 to 0.258 µM); in test [2], 0.1 to 0.2 µg/mL (≈ 0.129 to 0.258 µM).
`CC[C@H]1OC(=O)[C@H](C)[C@@H](O)[C@H](C)[C@@H](O)[C@](C)(O)C[C@@H](C)CN(CCCNCc2ccc3ccccc3n2)[C@H](C)[C@@H](O)[C@]1(C)O` [Example 3, 9a-{3-[(Quinolin-2-yl-methyl)amino]propyl}-3-O-decladinosyl-5-O-dedesosaminyl-9-deoxo-9-dihydro-9a-aza-9a-homoerythromycin A]: the results for the half-inhibitory concentration (IC50) (in test [1]; in the test on P. falciparum TM91C235; in test [2]) were 3.5 to 5 µg/mL (≈ 5.67 to 8.09 µM), 1 to 2.5 µg/mL (≈ 1.62 to 4.05 µM) and 0.2 to 1 µg/mL (≈ 0.324 to 1.62 µM), respectively.
As for `CC[C@H]1OC(=O)[C@H](C)[C@@H](O[C@H]2C[C@@](C)(OC)[C@@H](O)[C@H](C)O2)[C@H](C)[C@@H](O[C@@H]2O[C@H](C)C[C@H](N(C)C)[C@H]2O)[C@](C)(O)C[C@@H](C)CN(CCCNCc2cnc3ccccc3c2)[C@H](C)[C@@H](O)[C@]1(C)O` [Example 4, 9a-{3-[(Quinolin-3-yl-methyl)amino]propyl}-9-deoxo-9-dihydro-9a-aza-9a-homoerythromycin A], the IC50 was 0.1 to 0.2 µg/mL (≈ 0.107 to 0.214 µM) in test [1], under 0.1 µg/mL with P. falciparum TM91C235 and under 0.1 µg/mL in test [2].
With `CC[C@H]1OC(=O)[C@H](C)[C@@H](O)[C@H](C)[C@@H](O[C@@H]2O[C@H](C)C[C@H](N(C)C)[C@H]2O)[C@](C)(O)C[C@@H](C)CN(CCCNCc2cnc3ccccc3c2)[C@H](C)[C@@H](O)[C@]1(C)O` [Example 5, 9a-{3-[(Quinolin-3-yl-methyl)amino]propyl}-3-O-decladinosyl-9-deoxo-9-dihydro-9a-aza-9a-homoerythromycin A], the results for the IC50 (in test [1]; with P. falciparum TM91C235; in test [2]) were 0.2 to 1 µg/mL (≈ 0.258 to 1.29 µM), 0.1 to 0.2 µg/mL (≈ 0.129 to 0.258 µM) and 0.1 to 0.2 µg/mL (≈ 0.129 to 0.258 µM), respectively.
In the case of `CCC1OC(=O)C(C)C(O)C(C)C(O)C(C)(O)CC(C)CN(CCCNCc2cnc3ccccc3c2)C(C)C(O)C1(C)O` (stereo not drawn) [Example 6, 9a-{3-[(Quinolin-3-yl-methyl)amino]propyl}-3-O-decladinosyl-5-O-dedesosaminyl-9-deoxo-9-dihydro-9a-aza-9a-homoerythromycin A], the “IC50 D6” value in test [1] was “F (2800 < X ≦ 3500)”. The “IC50 TM91C235” value in the test with P. falciparum TM91C235 is listed as “D (1000 < X ≦ 2500)”. The “IC50 W2” value in test [2] is reported as “C (200 < X ≦ 1000)”.
`CCOc1ccc2ccccc2c1CNCCCN1C[C@H](C)C[C@@](C)(O)[C@H](O[C@@H]2O[C@H](C)C[C@H](N(C)C)[C@H]2O)[C@@H](C)[C@H](O[C@H]2C[C@@](C)(OC)[C@@H](O)[C@H](C)O2)[C@@H](C)C(=O)O[C@H](CC)[C@@](C)(O)[C@H](O)[C@H]1C` [Example 7, 9a-[3-({[2-(Ethyloxy)-naphthalen-1-yl]methyl}amino)propyl]-9-deoxo-9-dihydro-9a-aza-9a-homoerythromycin A]: the IC50 (in test [1]; with P. falciparum TM91C235; in test [2]) was under 0.1 µg/mL in each case.
With `CC[C@H]1OC(=O)[C@H](C)[C@@H](O)[C@H](C)[C@@H](O[C@@H]2O[C@H](C)C[C@H](N(C)C)[C@H]2O)[C@](C)(O)C[C@@H](C)CN(CCCNCc2cccc3ccccc23)[C@H](C)[C@@H](O)[C@]1(C)O` [Example 9, 9a-{3-[(Naphtalen-1-yl-methyl)amino]propyl}-3-O-decladinosyl-9-deoxo-9-dihydro-9a-aza-9a-homoerythromycin A], the “IC50 D6” value in test [1] was “A (X ≦ 100)”. In addition, the “IC50 TM91C235” value in the test with P. falciparum TM91C235 is “A (X ≦ 100)”. Further, the “IC50 W2” value in test [2] is “A (X ≦ 100)”.
Regarding `CC[C@H]1OC(=O)[C@H](C)[C@@H](O[C@H]2C[C@@](C)(OC)[C@@H](O)[C@H](C)O2)[C@H](C)[C@@H](O[C@@H]2O[C@H](C)C[C@H](N(C)C)[C@H]2O)[C@](C)(O)C[C@@H](C)CN(CCCNCc2ccncc2)[C@H](C)[C@@H](O)[C@]1(C)O` [Example 10, 9a-{3-[(Pyridine-4-yl-methyl)amino]propyl}-9-deoxo-9-dihydro-9a-aza-9a-homoerythromycin A], in test [1], the “IC50 D6” value is “C (200 < X ≦ 1000)”. In the test with P. falciparum TM91C235, the “IC50 TM91C235” value is given as “C (200 < X ≦ 1000)”. For the same molecule, the “IC50 W2” value in test [2] is on record as “C (200 < X ≦ 1000)”.
On to `CC[C@H]1OC(=O)[C@H](C)[C@@H](O)[C@H](C)[C@@H](O[C@@H]2O[C@H](C)C[C@H](N(C)C)[C@H]2O)[C@](C)(O)C[C@@H](C)CN(CCCNCc2ccncc2)[C@H](C)[C@@H](O)[C@]1(C)O` [Example 11, 9a-{3-[(Pyridine-4-yl-methyl)amino]propyl}-3-O-decladinosyl-9-deoxo-9-dihydro-9a-aza-9a-homoerythromycin A], for which the “IC50 D6” value in test [1] was “G (3500 < X ≦ 5000)”. Moreover, in the test on P. falciparum TM91C235, the “IC50 TM91C235” value is listed as “F (2800 < X ≦ 3500)”. For the same molecule, in test [2], the “IC50 W2” value is reported as “C (200 < X ≦ 1000)”.
For `CC[C@H]1OC(=O)[C@H](C)[C@@H](O[C@H]2C[C@@](C)(OC)[C@@H](O)[C@H](C)O2)[C@H](C)[C@@H](O[C@@H]2O[C@H](C)C[C@H](N(C)C)[C@H]2O)[C@](C)(O)C[C@@H](C)CN(CCCNCc2cccnc2)[C@H](C)[C@@H](O)[C@]1(C)O` [Example 12, 9a-{3-[(Pyridine-3-yl-methyl)amino]propyl}-9-deoxo-9-dihydro-9a-aza-9a-homoerythromycin A], in test [1], the “IC50 D6” value is on record as “C (200 < X ≦ 1000)”. Moreover, the “IC50 TM91C235” value with P. falciparum TM91C235 was “C (200 < X ≦ 1000)”. Further, in test [2], the “IC50 W2” value is recorded as “C (200 < X ≦ 1000)”.
For the molecule `CC[C@H]1OC(=O)[C@H](C)[C@@H](O)[C@H](C)[C@@H](O[C@@H]2O[C@H](C)C[C@H](N(C)C)[C@H]2O)[C@](C)(O)C[C@@H](C)CN(CCCNCc2cccnc2)[C@H](C)[C@@H](O)[C@]1(C)O` [Example 13, 9a-{3-[(Pyridine-3-yl-methyl)amino]propyl}-3-O-decladinosyl-9-deoxo-9-dihydro-9a-aza-9a-homoerythromycin A], in test [1], the “IC50 D6” value is recorded as “G (3500 < X ≦ 5000)”. Moreover, the “IC50 TM91C235” value in the test with P. falciparum TM91C235 is on record as “D (1000 < X ≦ 2500)”. Also, the “IC50 W2” value in test [2] was “C (200 < X ≦ 1000)”.
Consider `CC[C@H]1OC(=O)[C@H](C)[C@@H](O[C@H]2C[C@@](C)(OC)[C@@H](O)[C@H](C)O2)[C@H](C)[C@@H](O[C@@H]2O[C@H](C)C[C@H](N(C)C)[C@H]2O)[C@](C)(O)C[C@@H](C)CN(CCCNCc2ccnc3ccccc23)[C@H](C)[C@@H](O)[C@]1(C)O` [Example 14, 9a-{3-[(Quinolin-4-yl-methyl)amino]propyl}-9-deoxo-9-dihydro-9a-aza-9a-homoerythromycin A], for which the “IC50 D6” value in test [1] is “B (100 < X ≦ 200)”. In addition, in the test on P. falciparum TM91C235, the “IC50 TM91C235” value is reported as “B (100 < X ≦ 200)”. Moreover, the “IC50 W2” value in test [2] was “B (100 < X ≦ 200)”.
